In patent US20240376035A1, “METHOD FOR PRODUCING HESPERETIN DIHYDROCHALCONE” (SYMRISE AG, priority 2022, published 2024):

Assays:
trained expert panel = test: Sensory descriptive analysis of ice tea prototypes in different bases (Example 15); assay type: in vivo; details: for ANOVA (sweetness factor score): 10 ppm hesperetin dihydrochalcone and/or 3 ppm hesperetin; for effect on the sweetness factor: main and interaction effects in different bases, all sign. p<0.0001
Excerpt: Based on an experimental design, 86 ice tea prototypes (drinkable preparations) were created that systematically varied regarding different sources of sweetness conveyed by sugars (e.g. HFCS (high fructose corn syrup), invert sugar syrup), sweeteners (Reb A, Reb D, Reb M, sucralose, acesulfame K) as well as hesperetin dihydrochalcone (HC) and hesperetin (HT) (the results are depicted in Table 2).
In order to investigate the effect of HT and HC on perceived sweetness dimensions, the 86 samples were profiled (sensory descriptive analysis) by a trained expert panel consisting of 12 panelists. The panelists were trained on an ice tea language with focus on sweetness attributes. Each attribute was scored on an unstructured line scale (10 cm) for its perceived intensity. To ensure high data reliability, every sample was tested twice. The sweetness attributes “sweetness onset”, “sweetness overall intensity” and “sweetness long-lastingness” were aggregated to a so-called sweetness factor using factor analysis (principal component analysis with VARIMAX rotation). The sweetness factor score runs from neg. infinity to positive infinity. By applying statistical modelling (JMP software: fit model: standard least squares, Analysis of Variance: DF 86, F 19.6907, p<0.0001; Rsquare 0.972) all significant main and two-way interaction effects were identified amongst which HC (p<0.0001), HT (p<0.0001) and the interaction of HC and HT (p<0.0001) were identified. These main and interaction effects were further tested in different bases (see table 2) using ANOVA, p<0.05; post hoc test: LSD.

[1] = preparations having a high content of acid such as lemonades or fruit juices; cited from earlier work
[2] = Acesulfame K Ice tea Base, 60 ppm
[3] = HFCS Ice tea Base, 2 wt. % High Fructose corn syrup
[4] = Invert Sugar Syrup Ice tea Base, 2 wt. % invert sugar syrup
[5] = Reb A Ice tea Base, 60 ppm rebaudioside A
[6] = Reb A/Reb D Ice tea Base, 60 ppm rebaudioside A/60 ppm rebaudioside D
[7] = Reb A/Reb M Ice tea Base, 60 ppm rebaudioside A/45 ppm rebaudioside M
[8] = Reb M/Reb D Ice tea Base, 45 ppm rebaudioside M/60 ppm rebaudioside D
[9] = Sucralose Ice tea Base, 100 ppm sucralose

SMILES	ANOVA (sweetness factor score) (trained expert panel; [2])	ANOVA (sweetness factor score) (trained expert panel; [3])	ANOVA (sweetness factor score) (trained expert panel; [4])	ANOVA (sweetness factor score) (trained expert panel; [5])	ANOVA (sweetness factor score) (trained expert panel; [6])	ANOVA (sweetness factor score) (trained expert panel; [7])	ANOVA (sweetness factor score) (trained expert panel; [8])	ANOVA (sweetness factor score) (trained expert panel; [9])	ANOVA (sweetness factor score) (trained expert panel; Sugar Free Ice tea Base)	effect on the sweetness factor (trained expert panel)	effectivity as intensifier of the sweet flavour [1]
COc1ccc(CCC(=O)c2c(O)cc(O)cc2O)cc1O [Hesperetin dihydrochalcone]	−0.1	−0.9	−1	−0.5	−0.1	0	−0.3	−0.8	−1.3	positive effect	
COc1ccc([C@@H]2CC(=O)c3c(O)cc(O)cc3O2)cc1O [Hesperetin, hesperetin]	−2.4	−3.2	−3.3	−2.8	−2.4	−2.3	−2.6	−3.1	−3.6	smallest positive effect	diminished effectivity
